Patent US20250034216A1, “STEREOSELECTIVE COVALENT LIGANDS FOR ONCOGENIC AND IMMUNOLOGICAL PROTEINS” (The Scripps Research Institute, priority 2021, published 2025)

biological target: T1, EPB42_C586 (Homo sapiens, UniProt P16452); assay: IA-DTB cysteine engagement; format: binding; conditions: 22Rv1 cells, 20 μM probe, 1 h, relative to DMSO
T1 construct: endogenous in cells; host or cells: 22Rv1
T1 sequence (P16452 1-691): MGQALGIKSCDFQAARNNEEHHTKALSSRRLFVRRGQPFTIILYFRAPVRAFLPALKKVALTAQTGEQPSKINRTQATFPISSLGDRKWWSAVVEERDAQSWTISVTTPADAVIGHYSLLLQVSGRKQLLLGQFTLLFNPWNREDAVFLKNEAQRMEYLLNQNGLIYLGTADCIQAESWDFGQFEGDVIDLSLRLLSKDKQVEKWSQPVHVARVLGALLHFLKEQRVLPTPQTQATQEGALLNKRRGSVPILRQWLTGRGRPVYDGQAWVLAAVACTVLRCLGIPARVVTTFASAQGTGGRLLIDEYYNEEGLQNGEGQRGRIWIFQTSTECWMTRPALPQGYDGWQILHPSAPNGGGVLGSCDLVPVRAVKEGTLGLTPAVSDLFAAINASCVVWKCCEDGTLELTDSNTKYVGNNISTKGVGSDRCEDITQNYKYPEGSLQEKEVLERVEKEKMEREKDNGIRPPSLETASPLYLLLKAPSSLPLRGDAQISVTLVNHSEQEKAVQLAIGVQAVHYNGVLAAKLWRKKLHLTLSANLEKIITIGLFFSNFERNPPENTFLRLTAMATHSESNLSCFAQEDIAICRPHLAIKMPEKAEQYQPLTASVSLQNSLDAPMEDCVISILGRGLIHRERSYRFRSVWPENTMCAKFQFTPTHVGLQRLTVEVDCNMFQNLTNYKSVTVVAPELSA
Description: Sample preparation: Cells (adherent: 15 cm dishes, suspension: 2 million cells/mL) were treated with electrophilic probes in situ for indicated times and concentrations, washed with ice-cold PBS, and flash frozen in liquid nitrogen. Cell pellets were lysed by sonication (8 pulses, 40% power) in 500 μL ice-cold PBS supplemented with cOmplete protease inhibitors (1 tablet/10 mL of PBS). Whole cell lysates protein content was measured using a standard DC protein assay (Bio-Rad) and 500 μL (2 mg/mL protein content) were treated with 5 μL of 10 mM 1A-DTB (in DMSO) for 1 h at ambient temperature with occasional vortexing. Samples were methanol-chloroform precipitated with the addition of 500 μL ice-cold MeOH and 200 μL CHCl3, vortexed, and centrifuged (10 min, 10,000 g). Without disrupting the protein disk, both top and bottom layers were aspirated and the protein disk was washed with 1 mL ice-cold MeOH and centrifuged (10 min, 10,000 g). The pellets were allowed to air dry, and then re-suspended in 90 μL buffer (9 M urea, 10 mM DTT, 50 mM TEAB pH 8.5). Samples were reduced by heating at 65 C for 20 minutes and water bath sonicated as needed to resuspend the protein pellets, followed by alkylation via addition of 10 μL (500 mM) iodoacetamide and incubated at 37 C for 30 min with shaking. Samples were briefly centrifuged, and probe sonicated once more to ensure complete resuspension, and then diluted with 300 μL buffer (50 mM TEAB pH 8.5) to reach final concentration of 2 M urea. Trypsin (4 μL of 0.25 μg/μL in trypsin resuspension buffer with 25 mM CaCl2)) was added to each sample and digested at 37 C for 2 h to overnight. Digested samples were then diluted with 300 μL wash buffer (50 mM TEAB pH 8.5, 150 mM NaCl, 0.2% NP-40) containing streptavidin-agarose beads (50 μL of 50% slurry in wash buffer) and were rotated at room temperature for 2 hours. Enriched samples were pelleted by centrifugation (2000 g, 2 min) and transferred to BioSpin columns and washed (3×1 mL wash buffer, 3×1 mL PBS, 3×1 mL water). Enriched peptides were eluted by 300 μL 50% acetonitrile with 0.1% formic acid and eluate was evaporated to dryness via speedvac. IA-DTB labeled and enriched peptides were resuspended in 100 μL EPPS buffer (200 mM, pH 8.0) with 30% acetonitrile, vortexed, and water bath sonicated. Samples were TMT labeled with 3 μL of corresponding TMT tag (5 mg tag resuspended in 256 μL acetonitrile), vortexed, and incubated at room temperature for 1 hour. TMT labeling was quenched with the addition of hydroxylamine (5 μL 5% solution in H2O) and incubated for 15 minutes at room temperature. Samples were then acidified with 5 μL formic acid, combined and dried using a SpeedVac. Samples were desalted via Sep-Pak and then high pH fractionated.
Data processing: Cysteine engagement ratios (probe vs DMSO) were calculated for each peptide-spectra match by dividing each TMT reporter ion intensity by the average intensity for the channels corresponding to DMSO treatment. Peptide-spectra matches were then grouped based on protein ID and residue number (e.g., PSME1 C22), excluding peptides with summed reporter ion intensities for the DMSO channels <10,000, coefficient of variation for DMSO channels >0.5, and non-tryptic peptide sequences. TMT reporter ion intensities were normalized to the median summed signal intensity across channels.
Filtering of cysteine data: Replicates were combined based on cell line and treatment condition (probe, concentration, duration) by averaging cysteine engagement ratios across all experiments.

How did the “% engagement EPB42_C586” value turn out when `C=CC(=O)N1C[C@@H](c2ccc(Br)cc2)[C@H]1C(=O)Nc1cccc2cccnc12` [MY-1A, (2S,3R)-1-acryloyl-3-(4-bromophenyl)-N-(quinolin-8-yl)azetidine-2-carboxamide] was run?
The value was 55%.

How did the “% engagement EPB42_C586” value turn out when `C=CC(=O)N1C[C@H](c2ccc(Br)cc2)[C@@H]1C(=O)Nc1cccc2cccnc12` [MY-1B, (2R,3S)-1-acryloyl-3-(4-bromophenyl)-N-(quinolin-8-yl)azetidine-2-carboxamide] was run?
The value was 33.5%.

How did the “% engagement EPB42_C586” value turn out when `C=CC(=O)N1C[C@H](c2ccc(Br)cc2)[C@H]1C(=O)Nc1cccc2cccnc12` [MY-3A, (2S,3S)-1-acryloyl-3-(4-bromophenyl)-N-(quinolin-8-yl)azetidine-2-carboxamide] was run?
Its value is 66.5%.

For `C=CC(=O)N1C[C@H](c2ccc(Br)cc2)[C@H]1C(=O)Nc1cccc2cccnc12` [MY-3B, (2S,3S)-1-acryloyl-3-(4-bromophenyl)-N-(quinolin-8-yl)azetidine-2-carboxamide], which “% engagement EPB42_C586” value is on record?
Its value is 43.5%.
